Laboratory results: ChEMBL document CHEMBL1128594, “Synthesis and antimalarial activities of 12 beta-allyldeoxoartemisinin and its derivatives” (J Med Chem, 1995)
Values after ≈ are worked out from the molar mass of the structure shown.

Columns and labels:
[1] = tested on: Plasmodium falciparum; assay: In vitro antimalarial activity against drug-resistant Plasmodium falciparum D6; assay type: functional, organism-based
[2] = tested on: Plasmodium falciparum; assay: In vitro antimalarial activity against drug-resistant Plasmodium falciparum W-2; assay type: functional, organism-based

Row | SMILES | IC50 [1] [ng/mL] | IC50 [2] [ng/mL]
1 | C[C@@H]1CC[C@H]2[C@@H](C)CO[C@@H]3OC4(C)CC[C@@H]1[C@]32OO4 (single isomer, unassigned) [DEOXOARTEMISININ] | 1.11 (≈ 4.14 nM) | 0.48 (≈ 1.79 nM)
2 | C[C@@H]1CC[C@H]2[C@@H](C)C(=O)O[C@@H]3O[C@@]4(C)CC[C@@H]1[C@]32OO4 [ARTEMISININ] | 0.86 (≈ 3.05 nM) | 0.32 (≈ 1.13 nM)
3 | CCO[C@H]1O[C@@H]2O[C@@]3(C)CC[C@H]4[C@H](C)CC[C@@H]([C@H]1C)[C@@]24OO3 [ARTEMOTIL] | 0.34 (≈ 1.09 nM) | 0.18 (≈ 0.576 nM)
4 | CC[C@H]1O[C@@H]2O[C@@]3(C)CC[C@H]4[C@H](C)CC[C@@H]([C@H]1C)[C@@]24OO3 | 1.09 (≈ 3.68 nM) | 0.29 (≈ 0.978 nM)
5 | CCC[C@H]1O[C@@H]2O[C@@]3(C)CC[C@H]4[C@H](C)CC[C@@H]([C@H]1C)[C@@]24OO3 | 0.41 (≈ 1.32 nM) | 0.16 (≈ 0.515 nM)
6 | C=CC[C@H]1O[C@@H]2O[C@@]3(C)CC[C@H]4[C@H](C)CC[C@@H]([C@H]1C)[C@@]24OO3 | 1.07 (≈ 3.47 nM) | 0.59 (≈ 1.91 nM)
7 | C[C@H]1[C@@H](CCO)O[C@@H]2OC3(C)CC[C@H]4[C@H](C)CC[C@@H]1[C@@]24OO3 (single isomer, unassigned) | 2.04 (≈ 6.53 nM) | 0.59 (≈ 1.89 nM)
